Patent publication US11446282B2, “Methods of treating mixed dyslipidemia and hypertriglycertdemia” (Kowa Company, Ltd., priority 2017, dated 2022)

Molecular target: T1, PPARα (Homo sapiens, UniProt Q07869)
T1 sequence (Q07869 1-468): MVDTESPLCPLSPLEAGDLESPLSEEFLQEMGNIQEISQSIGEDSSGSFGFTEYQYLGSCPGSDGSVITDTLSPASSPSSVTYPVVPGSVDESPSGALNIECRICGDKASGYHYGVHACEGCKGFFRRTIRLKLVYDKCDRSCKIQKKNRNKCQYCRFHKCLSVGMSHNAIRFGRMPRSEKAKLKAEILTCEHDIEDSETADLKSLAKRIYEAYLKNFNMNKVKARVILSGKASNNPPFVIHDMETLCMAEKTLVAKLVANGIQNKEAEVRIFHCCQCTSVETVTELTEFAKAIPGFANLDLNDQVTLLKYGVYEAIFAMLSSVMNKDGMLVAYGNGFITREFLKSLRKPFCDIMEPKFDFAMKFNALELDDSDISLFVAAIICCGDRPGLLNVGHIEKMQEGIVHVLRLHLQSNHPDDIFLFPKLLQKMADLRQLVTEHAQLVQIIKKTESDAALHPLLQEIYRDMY
Test: PPARα-activating effect (EC50)
Type: biochemical

SMILES: CC[C@@H](Oc1cccc(CN(CCCOc2ccc(OC)cc2)c2nc3ccccc3o2)c1)C(=O)O [Pemafibrate, (2R)-2-[3-({1,3-benzoxazol-2-yl[3-(4-methoxyphenoxy)propyl]amino}methyl)phenoxy]butanoic acid]
- specificity for the PPARα receptor (versus fenofibrate): more specific
- times more active than fenofibric acid in terms of the EC50 of the PPARα-activating effect (versus fenofibric acid): approximately 2500 times
